# Data: PMC13266999, “Designing Antibiotics with Inherent Resistance to Efflux as a Strategy to Revive Discovery against Multidrug-Resistant Pathogens” (Journal of Medicinal Chemistry, 2026)
# Like-named read-outs stand apart in the source and are kept apart here.
# How the values were obtained:
# E. faecium = test: MIC (microbroth dilution); type: cell-based, Enterococcus faecium
# Procedure: (§1) All bacteria were maintained on tryptic soy agar (TSA), except Streptococcus spp., which were maintained on Columbia agar plates containing 5% horse blood. All bacterial assays were carried out in tryptic soy broth (TSB), except for Streptococcus spp. which were grown in cation-adjusted Mueller Hinton broth containing 2.5% lysed horse blood. Bacteria were grown to stationary phase in liquid culture overnight, with shaking at 200 rpm, before being back diluted to the relevant starting concentration for each assay below. MICs were measured by the microbroth dilution method. […] Absorbance at OD600 was read on a CLARIOstar spectrophotometer (BMG Labtech) and the MIC was defined as the minimum concentration of compound where no visible growth was detected. The compounds were prepared as a DMSO stock and equivalent concentrations of DMSO had no effect on bacterial growth. MICs were also performed in the presence of the outer membrane permeator, polymyxin b nonapeptide (PMBN) following the same MIC method but with the following variation. The 2-fold dilution series of compound was prepared as above, then 50 μL of PMBN at a final concentration of 30 μg/mL was added to relevant wells, while 50 μL/well of blank media was added to the remaining wells. Bacteria were then added at 50 μL/well for a starting concentration as above. Thirty μg/mL of PMBN had no effect on bacterial growth. The MICs were read and defined as above. All animal procedures were performed by the contract research organization Pharmacology Discovery Services Taiwan in accordance with the Guide for the Care and Use of Laboratory Animals. The procedures were approved by the Institutional Ethics Committee of Pharmacology Discovery Services Taiwan, Ltd. (approval no. AB127662), in compliance with animal welfare legislation in Taiwan.
# S. haemolyticus = test: MIC (microbroth dilution); type: cell-based, Staphylococcus haemolyticus; conditions: SH324
# Procedure: as §1
# S. aureus NCTC 13616 = test: Time-kill assay; type: cell-based; conditions: 4x MIC, 24 hours
# Procedure: Time-kill assays were performed as defined previously.
# E. faecalis = test: MIC (microbroth dilution); type: cell-based, Enterococcus faecalis
# Procedure: as §1, with “All bacterial assays were carried out in tryptic soy broth (TSB), except for Streptococcus spp. which were grown in cation-adjusted Mueller Hinton broth containing 2.5% lysed horse blood.” left out, “The compounds were prepared as a DMSO stock and equivalent concentrations of DMSO had no effect on bacterial growth.” left out, “Thirty μg/mL of PMBN had no effect on bacterial growth.” left out
# E. coli = test: MIC (microbroth dilution); type: cell-based; conditions: Escherichia coli
# Procedure: as §1, with “All bacterial assays were carried out in tryptic soy broth (TSB), except for Streptococcus spp. which were grown in cation-adjusted Mueller Hinton broth containing 2.5% lysed horse blood.” left out, “The compounds were prepared as a DMSO stock and equivalent concentrations of DMSO had no effect on bacterial growth.” left out, “Thirty μg/mL of PMBN had no effect on bacterial growth.” left out
# Acinetobacter baumannii = test: MIC (microbroth dilution); type: cell-based
# Procedure: as §1
# Pseudomonas aeruginosa = test: MIC (microbroth dilution); type: cell-based
# Procedure: as §1
# A. baumannii = A. baumannii efflux chequerboard assay; type: cell-based, Acinetobacter baumannii; conditions: for MIC: Acinetobacter baumannii
# Procedure: Checkerboard assays were performed by preparing two separate 2-fold dilution series of compounds in two 96 well plates, one horizontally, one vertically. […] Plates were incubated at 37 C for 20 h and the absorbance (OD600) was read on a CLARIOstar spectrophotometer (BMG Labtech). The fractional inhibitory concentration was calculated as follows: ΣFIC = [(MIC of A in combination)/(MIC of A alone)] + [(MIC of B in combination)/(MIC of B alone)].
smiles,measurement,setting,value
"O=C(O)c1cn(C2CC2)c2cc(N3CCNCC3)c(F)cc2c1=O [Ciprofloxacin, ciprofloxacin, reference compound]",MIC,E. faecium; EF205,128 µg/mL
same,MIC,E. faecium; NCTC 12204,1 µg/mL
same,MIC,S. haemolyticus,16 µg/mL
same,time-kill profile,S. aureus NCTC 13616,comparable bacteriostatic profiles
same,MIC,E. faecalis; EF602,64 µg/mL
same,MIC,"E. faecalis; Enterococcus faecalis, NCTC775, NCTC 775, read-out: MIC",1 µg/mL
same,MIC,"E. faecalis; Enterococcus faecalis, NCTC12204, NCTC 12204, read-out: MIC",1 µg/mL
same,MIC,E. faecalis; NCTC 775,1 µg/mL
same,MIC,E. coli; 319238/UR,> 128 µg/mL
same,MIC,E. coli; LEC077,0.25 µg/mL
same,MIC,E. coli; LEC081,0.25 µg/mL
same,MIC,"Acinetobacter baumannii; Acinetobacter baumannii, 86, oxa23",128 µg/mL
same,MIC,"Acinetobacter baumannii; Acinetobacter baumannii, 96, oxa23",128 µg/mL
same,MIC,"Acinetobacter baumannii; Acinetobacter baumannii, A318",32 µg/mL
same,MIC,"Acinetobacter baumannii; Acinetobacter baumannii, A319",32 µg/mL
same,MIC,"Acinetobacter baumannii; Acinetobacter baumannii, A600 colR",32 µg/mL
same,MIC,"Acinetobacter baumannii; Acinetobacter baumannii, AB01335 adeG183::T26",4 µg/mL
same,MIC,"Acinetobacter baumannii; Acinetobacter baumannii, AB05215 adeS132::T26",2 µg/mL
same,MIC,"Acinetobacter baumannii; Acinetobacter baumannii, AB05218 adeS141::T26",4 µg/mL
same,MIC,"Acinetobacter baumannii; Acinetobacter baumannii, AB05219 adeR103::T26",4 µg/mL
same,MIC,"Acinetobacter baumannii; Acinetobacter baumannii, AB05222 adeR160::T101",2 µg/mL
same,MIC,"Acinetobacter baumannii; Acinetobacter baumannii, AB05226 adeA165::T26",4 µg/mL
same,MIC,"Acinetobacter baumannii; Acinetobacter baumannii, AB05227 adeA138::T26",2 µg/mL
same,MIC,"Acinetobacter baumannii; Acinetobacter baumannii, AB05228 adeB150::T26",2 µg/mL
same,MIC,"Acinetobacter baumannii; Acinetobacter baumannii, AB05230 adeB181::T26",2 µg/mL
same,MIC,"Acinetobacter baumannii; Acinetobacter baumannii, BAA1709, BAA-1709, read-out: MIC",0.25 µg/mL
same,MIC,"Acinetobacter baumannii; Acinetobacter baumannii, BAA1710, BAA-1710 (AYE), read-out: MIC",64 µg/mL
same,MIC,"Acinetobacter baumannii; Acinetobacter baumannii, BAA2093, BAA-2093, read-out: MIC",≤ 0.125 µg/mL
same,MIC,"Acinetobacter baumannii; Acinetobacter baumannii, NCTC10303, NCTC 10303, read-out: MIC",0.5 µg/mL
same,MIC,"Acinetobacter baumannii; Acinetobacter baumannii, NCTC12156, NCTC 12156, read-out: MIC",1 µg/mL
same,MIC,"Acinetobacter baumannii; Acinetobacter baumannii, NCTC13302, NCTC 13302, oxa24, read-out: MIC",32 µg/mL
same,MIC,"Acinetobacter baumannii; Acinetobacter baumannii, NCTC13424, NCTC 13424, oxa23",> 128 µg/mL
same,MIC,"Acinetobacter baumannii; Acinetobacter baumannii, UKA1, oxa23, read-out: MIC",8 µg/mL
same,MIC,"Acinetobacter baumannii; Acinetobacter baumannii, UKA2, Low resistance, read-out: MIC",64 µg/mL
same,MIC,"Acinetobacter baumannii; Acinetobacter baumannii, UKA9, read-out: MIC",0.25 µg/mL
same,MIC,"Acinetobacter baumannii; Acinetobacter baumannii, UKA12, oxa23",> 128 µg/mL
same,MIC,"Acinetobacter baumannii; Acinetobacter baumannii, UKA13, oxa23",> 128 µg/mL
same,MIC,"Acinetobacter baumannii; Acinetobacter baumannii, UKA15, oxa23, read-out: MIC",16 µg/mL
same,MIC,"Acinetobacter baumannii; Acinetobacter baumannii, UKA19, read-out: MIC",8 µg/mL
same,MIC,"Acinetobacter baumannii; Acinetobacter baumannii, W1, read-out: MIC",128 µg/mL
same,MIC50,"Acinetobacter baumannii; Acinetobacter baumannii, panel of 25 A. baumannii strains",32 µg/mL
same,MIC,"Acinetobacter baumannii; BAA-1710 (AYE), listed as 1",> 128 µg/mL
same,MIC,Pseudomonas aeruginosa; NCTC 13437,64 µg/mL
same,MIC,"Pseudomonas aeruginosa; Pseudomonas aeruginosa, PAO1, PAO1",0.25 µg/mL
same,MIC +50 (0.25x MIC),A. baumannii; A. baumannii ATCC 17978,0.0017 to 0.188 µg/mL
same,MIC +50 (0.5x MIC),A. baumannii; A. baumannii ATCC 17978,0.007 to 0.055 µg/mL
same,MIC +50 (0.25x MIC),A. baumannii; A. baumannii AYE,3.5 to 15.5 µg/mL
same,MIC +50 (0.5x MIC),A. baumannii; A. baumannii AYE,0.188 to 0.9 µg/mL
same,MIC,"A. baumannii; ATCC17978, read-out: MIC alone",0.25 µg/mL
same,MIC,A. baumannii; read-out: MIC alone,64 µg/mL
